Test results as given in patent US8546579B2, “Bicycloheteroaryl compounds as P2X7 modulators and uses thereof” (Evotec (US) Inc., priority 2006, dated 2013).

Target: T1, P2X7 receptor (Homo sapiens, UniProt Q99572)
T1 construct: host or cells: THP-1 cells differentiated with LPS and IFN-γ
T1 sequence (Q99572 1-595): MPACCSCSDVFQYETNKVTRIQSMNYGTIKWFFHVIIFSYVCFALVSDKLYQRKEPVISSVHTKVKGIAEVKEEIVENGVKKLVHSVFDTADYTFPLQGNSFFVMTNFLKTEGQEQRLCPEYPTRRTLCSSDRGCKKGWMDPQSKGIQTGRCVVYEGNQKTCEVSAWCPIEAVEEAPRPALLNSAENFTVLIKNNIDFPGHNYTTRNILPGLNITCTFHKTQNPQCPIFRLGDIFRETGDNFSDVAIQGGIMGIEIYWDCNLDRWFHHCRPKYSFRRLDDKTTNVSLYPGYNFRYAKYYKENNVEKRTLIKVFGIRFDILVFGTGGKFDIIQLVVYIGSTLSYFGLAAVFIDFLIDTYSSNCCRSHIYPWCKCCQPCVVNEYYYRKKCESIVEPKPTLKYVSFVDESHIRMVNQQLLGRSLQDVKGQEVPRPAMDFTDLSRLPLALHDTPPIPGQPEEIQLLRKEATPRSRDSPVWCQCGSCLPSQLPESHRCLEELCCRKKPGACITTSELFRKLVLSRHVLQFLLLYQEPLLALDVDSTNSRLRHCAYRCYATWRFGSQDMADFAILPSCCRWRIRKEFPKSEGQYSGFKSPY
Assay: IL-1β release assay in differentiated THP-1 cells stimulated with BzATP (Example 9)
Type: cell-based
Details: 0.1 μM compound; differentiated THP-1 cells, BzATP 250 uM; '*' class symbols; read-out: IL-1β % Inhib. (asterisk classes, 0.1 μM)
Method: THP-1 cells (ATCC Cat # 285-IF-100) are plated in 96 well plates at a concentration of 200,000 cells per well and allowed to differentiate in RPMI-1640 media (ATCC Cat # 30-2001) containing 10% FBS, 100 IU/mL penicillin, 100 ug/mL streptomycin, 100 ng/mL LPS and 100 ng/mL IFN-γ for 16 hours. Following differentiation, the cells are treated for an additional 2 hours in RPMI-1640 media containing 100 IU/mL penicillin, 100 ug/mL streptomycin and fresh LPS at 100 ng/mL. The cells are then pretreated for 30 minutes with the compound of interest at the appropriate concentration in RPMI media containing 100 IU/mL penicillin, 100 ug/mL streptomycin. Following the pretreatment 2′,3′-O-(4-benzoylbenzoyl)-adenosine 5′-triphosphate (Sigma Aldrich Cat # B6396) is added to a final concentration of 250 uM and the cells are incubated for an additional 45 minutes. 30 uL of cell supernatant is then collected and IL-1β levels determined via ELISA (R&D systems Cat. # HSLB50) according to manufacturer's recommendations using the Tecan Safire plate reader. Background adjusted IL-1β levels of drug treated and non-treated cells are used to calculate the percent inhibition.
The compounds set forth in Table 1 were tested for activity in a cellular model as described herein. Specifically, cells were pretreated with differing amounts of the compound under test and released IL-1β determined as in Example 9, above. Measurements were made and IC50 values, presented in Table 2, below, were determined by fitting the data to a four parameter logistic equation using GraphPad Prism software (GraphPad Software, Inc). The equation may be expressed by the following formula: Y=Bottom+(Top−Bottom)/(1+10^((Log EC50−X)*HillSlope)) Where X is the logarithm of concentration, Y is the response and Y starts at Bottom and goes to Top with a sigmoid shape.

Row | inhibition at 0.1 µM [%] | SMILES
1 | 0 to 25 | CCOc1ccc(C(=O)Nc2cccc3c(=O)n(CCN(C)C)ccc23)cc1 [Compound 1146]
2 | 0 to 25 | COc1ccccc1CCC(=O)Nc1cccc2c(=O)n(CCN(C)C)ccc12 [Compound 1149]

Same assay, conditions: 0.3 μM compound; differentiated THP-1 cells, BzATP 250 uM; '+' class symbols; read-out: IL-1β % Inhib. @ 0.3 μM

Row | inhibition at 0.3 µM [%] | SMILES
3 | 0 to 25 | Cc1ccc(C)c(C(=O)Nc2cccc3c(=O)n(CC4CCOCC4)ccc23)c1 [Compound 1088]
4 | 0 to 25 | COc1cc(OC)cc(C(=O)Nc2cccc3c(=O)n(CC4CCOCC4)ccc23)c1 [Compound 1089]
5 | 0 to 25 | COc1c(C)cc(C(=O)Nc2cccc3c(=O)n(CC4CCOCC4)ccc23)cc1C [Compound 1112]
6 | 0 to 25 | Cc1ccc(C(=O)Nc2cccc3c(=O)n(CC4CCOCC4)ccc23)cc1Cl [Compound 1113]
7 | 0 to 25 | Cc1cc(Cl)ccc1C(=O)Nc1cccc2c(=O)n(CC3CCOCC3)ccc12 [Compound 1114]
8 | 0 to 25 | Cc1cc(C(=O)Nc2cccc3c(=O)n(CC4CCOCC4)ccc23)ccc1F [Compound 1124]
9 | 0 to 25 | Cc1ccc(Cl)c(C(=O)Nc2cccc3c(=O)n(CC4CCOCC4)ccc23)c1 [Compound 1128]
10 | 0 to 25 | Cc1ccc(Cl)cc1C(=O)Nc1cccc2c(=O)n(CC3CCOCC3)ccc12 [Compound 1129]
11 | 0 to 25 | COc1ccc(C(=O)Nc2cccc3c(=O)n(CC4CCOCC4)ccc23)cc1C [Compound 1133]
12 | 0 to 25 | CN(C)CCn1ccc2c(NC(=O)c3ccccc3Cl)cccc2c1=O [Compound 1137]
13 | 0 to 25 | CN(C)CCn1ccc2c(NC(=O)c3ccc(Cl)cc3Cl)cccc2c1=O [Compound 1138]
14 | 0 to 25 | CN(C)CCn1ccc2c(NC(=O)c3cc(Cl)ccc3Cl)cccc2c1=O [Compound 1139]
15 | 0 to 25 | Cc1cccc(C(=O)Nc2cccc3c(=O)n(CCN(C)C)ccc23)c1C [Compound 1140]
16 | 0 to 25 | Cc1ccc(C(=O)Nc2cccc3c(=O)n(CCN(C)C)ccc23)c(C)c1 [Compound 1141]
17 | 0 to 25 | Cc1ccc(C)c(C(=O)Nc2cccc3c(=O)n(CCN(C)C)ccc23)c1 [Compound 1142]
18 | 0 to 25 | CN(C)CCn1ccc2c(NC(=O)c3cc(Cl)cc(Cl)c3)cccc2c1=O [Compound 1143]
19 | 0 to 25 | Cc1cccc(C(=O)Nc2cccc3c(=O)n(CCN(C)C)ccc23)c1 [Compound 1145]
20 | 0 to 25 | CN(C)CCn1ccc2c(NC(=O)c3ccc(C(C)(C)C)cc3)cccc2c1=O [Compound 1147]
21 | 0 to 25 | CC(C(=O)Nc1cccc2c(=O)n(CCN(C)C)ccc12)c1ccccc1 (stereo not drawn) [Compound 1148]

Continued, compound first:

Row | SMILES | inhibition at 0.3 µM [%]
22 | Cc1cccc(C(=O)Nc2cccc3c(=O)n(CC4CCOCC4)ccc23)c1 [Compound 1090] | 0 to 25
23 | CCOc1ccc(C(=O)Nc2cccc3c(=O)n(CC4CCOCC4)ccc23)cc1 [Compound 1091] | 0 to 25
24 | CC(C)(C)c1ccc(C(=O)Nc2cccc3c(=O)n(CC4CCOCC4)ccc23)cc1 [Compound 1092] | 0 to 25
25 | CC(C(=O)Nc1cccc2c(=O)n(CC3CCOCC3)ccc12)c1ccccc1 (stereo not drawn) [Compound 1093] | 0 to 25
26 | COc1ccccc1CCC(=O)Nc1cccc2c(=O)n(CC3CCOCC3)ccc12 [Compound 1094] | 0 to 25
27 | COc1ccc(CCC(=O)Nc2cccc3c(=O)n(CC4CCOCC4)ccc23)cc1 [Compound 1095] | 0 to 25
28 | O=C(Nc1cccc2c(=O)n(CC3CCOCC3)ccc12)c1cccc2ccccc12 [Compound 1096] | 0 to 25
29 | O=C(Nc1cccc2c(=O)n(CC3CCOCC3)ccc12)c1ccc2ccccc2c1 [Compound 1098] | 0 to 25
30 | COc1ccccc1CC(=O)Nc1cccc2c(=O)n(CC3CCOCC3)ccc12 [Compound 1099] | 0 to 25
31 | COc1ccc(OC)c(CC(=O)Nc2cccc3c(=O)n(CC4CCOCC4)ccc23)c1 [Compound 1100] | 0 to 25
32 | Cc1ccccc1CC(=O)Nc1cccc2c(=O)n(CC3CCOCC3)ccc12 [Compound 1101] | 0 to 25
33 | COc1cccc(CC(=O)Nc2cccc3c(=O)n(CC4CCOCC4)ccc23)c1 [Compound 1102] | 0 to 25
34 | COc1ccc(CC(=O)Nc2cccc3c(=O)n(CC4CCOCC4)ccc23)cc1OC [Compound 1103] | 0 to 25
35 | Cc1cccc(CC(=O)Nc2cccc3c(=O)n(CC4CCOCC4)ccc23)c1 [Compound 1104] | 0 to 25
36 | COc1ccc(CC(=O)Nc2cccc3c(=O)n(CC4CCOCC4)ccc23)cc1 [Compound 1105] | 0 to 25
37 | CCOc1ccc(CC(=O)Nc2cccc3c(=O)n(CC4CCOCC4)ccc23)cc1 [Compound 1106] | 0 to 25
38 | Cc1ccc(CC(=O)Nc2cccc3c(=O)n(CC4CCOCC4)ccc23)cc1 [Compound 1107] | 0 to 25
39 | O=C(CCCc1ccccc1)Nc1cccc2c(=O)n(CC3CCOCC3)ccc12 [Compound 1108] | 0 to 25
40 | O=C(Nc1cccc2c(=O)n(CC3CCOCC3)ccc12)c1cc2ccccc2o1 [Compound 1109] | 0 to 25
41 | O=C(Cc1ccc2c(c1)OCO2)Nc1cccc2c(=O)n(CC3CCOCC3)ccc12 [Compound 1110] | 0 to 25

Row | SMILES | inhibition at 0.3 µM [%]
42 | COc1cc(CC(=O)Nc2cccc3c(=O)n(CC4CCOCC4)ccc23)cc(OC)c1 [Compound 1111] | 0 to 25
43 | O=C(CC1C[C@@H]2CC[C@H]1C2)Nc1cccc2c(=O)n(CC3CCOCC3)ccc12 (stereo partly drawn) [Compound 1115] | 26 to 50
44 | O=C(Nc1cccc2c(=O)n(CC3CCOCC3)ccc12)[C@]12C[C@@H]3CC1C[C@@H](C3)C2 [Compound 1116] | 0 to 25
45 | O=C(Nc1cccc2c(=O)n(CC3CCOCC3)ccc12)c1cccc2c1OCCO2 [Compound 1117] | 0 to 25
46 | O=C(Nc1cccc2c(=O)n(CC3CCOCC3)ccc12)c1ccc2c(c1)OCCCO2 [Compound 1118] | 0 to 25
47 | O=C(Cc1csc2ccccc12)Nc1cccc2c(=O)n(CC3CCOCC3)ccc12 [Compound 1119] | 0 to 25
48 | Cc1c(Cl)cccc1C(=O)Nc1cccc2c(=O)n(CC3CCOCC3)ccc12 [Compound 1120] | 0 to 25
49 | Cc1cc(C)cc(CC(=O)Nc2cccc3c(=O)n(CC4CCOCC4)ccc23)c1 [Compound 1121] | 0 to 25
50 | O=C(Nc1cccc2c(=O)n(CC3CCOCC3)ccc12)C1C[C@@H]2CC[C@H]1C2 (stereo partly drawn) [Compound 1122] | 0 to 25
51 | COc1ccc(CC(=O)Nc2cccc3c(=O)n(CC4CCOCC4)ccc23)c(OC)c1 [Compound 1123] | 0 to 25
52 | O=C(CCc1ccc(Cl)cc1)Nc1cccc2c(=O)n(CC3CCOCC3)ccc12 [Compound 1125] | 0 to 25
53 | CCOc1ccccc1CC(=O)Nc1cccc2c(=O)n(CC3CCOCC3)ccc12 [Compound 1126] | 0 to 25
54 | COc1ccc(CC(=O)Nc2cccc3c(=O)n(CC4CCOCC4)ccc23)cc1C [Compound 1127] | 0 to 25
55 | Cc1cccc(CCC(=O)Nc2cccc3c(=O)n(CC4CCOCC4)ccc23)c1 [Compound 1130] | 0 to 25
56 | O=C(Nc1cccc2c(=O)n(CC3CCOCC3)ccc12)c1cc2cc(Cl)ccc2o1 [Compound 1131] | 0 to 25
57 | Cc1cccc(C(=O)Nc2cccc3c(=O)n(CC4CCOCC4)ccc23)c1Cl [Compound 1132] | 0 to 25
58 | Cc1ccc(CCC(=O)Nc2cccc3c(=O)n(CC4CCOCC4)ccc23)c(C)c1 [Compound 1134] | 0 to 25
59 | O=C(CCc1cccc(Cl)c1)Nc1cccc2c(=O)n(CC3CCOCC3)ccc12 [Compound 1135] | 0 to 25
60 | CC(C)Cc1ccc(C(=O)Nc2cccc3c(=O)n(CC4CCOCC4)ccc23)cc1 [Compound 1136] | 0 to 25
